Source: US11083798B2, “Conjugate including peptide molecule capable of self-assembly in cell organelle and pharmaceutical composition for preventing or treating cancer including conjugate” (UNIST (ULSAN NATIONAL INSTITUTE OF SCIENCE AND TECHNOLOGY), priority 2016, dated 2021)

Tests used:
[1] = test system: HeLa cells; assay: ROS generation within the cell with dihydroethidium (DHE); type: cell-based, human
Text: The mitochondrial stress may eventually lead to the whole-cell stress. […] DHE dye may intercalate with nuclear DNA and oxidizes to ethidium in the presence of ROS, which may show red fluorescence.
(§1) TEM images of Mito-VV and Mito-FxFx were obtained by observation in the same manner as in Example 3.

[2] = test system: HeLa, MDA-MB-486, MCF10, PC3, SCC7, HEK293T, NIH-3T3; assay: cell cytotoxicity, Alamar Blue assay, variety of cell lines; type: cell-based; details: 24 hours, FIG. 33, read-out: IC50 (cell viability)
Procedure: After the confirmation of the intra-mitochondrial assembly of peptide amphiphile, the toxicity of Mito-peptides toward a variety of cells was analyzed, the cells including cancer cell lines such as HeLa (ATCC, cervical cancer), MDA-MB-486 (ATCC) (mammary cancer) MCF10 (breast cancer), PC3 (ATCC, prostate cancer), SCC7 (ATCC, skin cancer), HEK293T (ATCC), and NIH-3T3 (ATCC).
(§2) In order to analyze cell cytotoxicity, the cancer cells were incubated in an incubator including a DMEM medium (available from Gibco) containing 10% of FBS, 1% of penicillin/streptomycin (available from Life Technologies) at a temperature of 37° C. Cell viability thereof was measured 24 hours after cell incubation, by following the protocol of the manufacturer of Alamar Blue assay (available from Thermo Fisher Scientific).

[3] = self-assembled morphology and size by electron microscopy (TEM); type: physicochemical; details: PBS (10 mM) and water
[4] = test system: HeLa cells; assay: ROS generation within mitochondria with Mito SOX Red; type: cell-based, human; details: 6 hours of incubation with HeLa cells
Text: The mitochondrial dysfunction may result in excessive production of reactive oxygen species (ROS). To confirm the oxidative stress induced by Mito-FF, generation of ROS within mitochondria was monitored using Mito SOX Red.

[5] = test system: HeLa cells; assay: TEM image analysis of mitochondrial dysfunction in treated cells; type: cell-based, human; details: 20 μM, 3 hours
Procedure: To visualize the mitochondrial dysfunction induced by Mito-FF, a TEM image analysis was conducted with HeLa cells treated with Mito-FF of a concentration of 20 μM for 3 hours in the same manner as in Example 3.

[6] = critical aggregation concentration (CAC) by pyrene excitation method; type: physicochemical; details: pyrene excitation spectrum, I344/I339
Procedure: In order to verify whether intracellular self-assembly of the Mito-FF according to the present disclosure can occur or not, the CAC of the Mito-FF was measured as follows.
Intensities of emission at 344 nanometers (nm) and 339 nm in a pyrene excitation spectrum differ according to whether pyrene molecules are present as unaggregated individual molecules or as aggregated molecules. The intensities at 344 nm and 339 nm in the excitation spectrum were measured, and the ratio of an intensity in the excitation spectrum at 344 nm to an intensity in the excitation spectrum at 339 nm was calculated. Based on the standard curve shown in FIG. 4, the CAC for Mito-FF was determined.

[7] = test system: HEK 293T normal cell lines; assay: cell viability of normal cell line, Alamar Blue assay; type: cell-based; details: 24 hours of treatment
Procedure: as §2
In order to confirm whether apoptosis occurs or not by treatment with Mito-peptides, the cell viability of HEK 293T normal cell lines treated with Mito-FF, Mito-FxFx, Mito-VV, or Mito-GG was measured in the same manner as described above.

[8] = test system: HeLa cells; assay: FITC annexin/PI staining assay, confocal microscopy; type: cell-based, human; details: 10 μM, Annexin V positive, PI negative
Procedure: Mitochondria play a vital role in the initiation of an intrinsic apoptosis cascade. It was anticipated that a Mito-peptide localized in a mitochondrion may self-assemble, thereby causing stress in the mitochondrion and inducing apoptotic mechanisms. To confirm this prediction experimentally, FITC annexin/PI staining assay was performed.
For the FIIC annexin/PI staining assay, HeLa cells were incubated in an incubator including a DMEM medium (available from Gibco) containing 10% of FBS and 1% of penicillin/streptomycin (available from Life Technologies) at a temperature of 37° C. 10 μM of each peptide was incubated for 1, 4, 6, 8, or 10 hours. Following the protocol of the manufacturer, the cells were incubated for 15 minutes at room temperature in the presence of 100 μL of annexin-binding buffer solution, 5 μL of Alexa Fluor 488-conjugated annexin V (V13241 available from Life Technologies), and 1 μL of a 100 μg/mL PI working solution.

[9] = liposomal leakage assay (calcein release)
Procedure: To confirm this expectation, a liposomal leakage assay was conducted.
The release of a self-quenching dye such as calcine from liposome is commonly used to test integrity of lipid bilayers. […] Different concentrations of Mito-FF were added to a vesicle-containing solution, and leakage of encapsulated calcein from the vesicle was monitored.

[10] = test system: HeLa cells; assay: flow cytometric analysis (FACS) with annexin V/PI staining; type: cell-based, human; details: 10 μM
Procedure: For the quantitative analysis of apoptosis, flow cytometric analysis (FACS) was conducted over time with FI-TC annexin V/PI staining assay by using FACSCalibur (available from BD Bioscience), following the protocol of the manufacturer.
In detail, HeLa cells treated with 10 μM of Mito-FF were incubated for 4 hours or 8 hours. Then, FACS analysis was performed thereon.

[11] = test system: HeLa cells; assay: mitochondrial membrane potential depolarization with TMRM; type: cell-based, human; details: HeLa cells incubated with TMRM and peptide
Text: Under normal conditions, the inner membrane of mitochondria is in an electrochemically polarized state with a higher concentration of H^+ in the inner membrane space. The electrochemical gradient across the membrane causes H^+ to flow to the inner membrane of mitochondria and this process is coupled with production of adenosine triphosphate (ATP). The external materials which may uncouple this process cause the flow of H^+ to be independent of ATP production. This condition is referred as mitochondrial depolarization, which serves as a preliminary indication of mitochondrial dysfunction.
To examine the effect of Mito-FF on the mitochondrial membrane potential, HeLa cells were incubated with TMRM and Mito-FF. The fluorescence emission from the TMRM was monitored at times lapses of 1 hour, 3 hours, and 6 hours. Red fluorescence of TMRM appears when a mitochondrial membrane is completely polarized, whereas depolarization of a mitochondrial membrane causes disappearance of TMRM red fluorescence.
as §1

[12] = test system: HeLa cells; details: 24 hours, FIG. 32

## NC(=O)[C@H](CCCCNCCCCC[P+](c1ccccc1)(c1ccccc1)c1ccccc1)NC(=O)[C@H](CC1CCCCC1)NC(=O)[C@H](CC1CCCCC1)NC(=O)CCCc1ccc2ccc3cccc4ccc1c2c34 [Mito-FxFx]
[1]
  ROS generation within the cell (DHE): ROS generation
[2]
  IC50: 10 µM

## CC(C)[C@H](NC(=O)CCCc1ccc2ccc3cccc4ccc1c2c34)C(=O)N[C@H](C(=O)N[C@@H](CCCCNCCCCC[P+](c1ccccc1)(c1ccccc1)c1ccccc1)C(N)=O)C(C)C [Mito-VV]
[1]
  ROS generation within the cell (DHE): ROS generation
[2]
  IC50: 10 µM

## NC(=O)[C@H](CCCCNCCCCC[P+](c1ccccc1)(c1ccccc1)c1ccccc1)NC(=O)[C@H](Cc1ccccc1)NC(=O)[C@H](Cc1ccccc1)NC(=O)CCCc1ccc2ccc3cccc4ccc1c2c34 [Mito-FF]
[1]
  ROS generation within the cell (DHE): significant ROS was generated
[3]
  average length of nanofibers: 500 nm
  average width of individual fibers: 10 nm
[4]
  ROS generation inside mitochondria (Mito SOX Red): ROS was generated inside the mitochondria
[5]
  state of mitochondrion in TEM image: severely damaged
[6]
  critical aggregation concentration (CAC): 60 µM
[7]
  toxicity against normal cells: innocuous
[8]
  time until cells entered an early apoptotic stage: ≤ 6 h
[9]; concentration below the CAC
  dye leakage at a concentration below the CAC: did not induce any dye leakage
[9]; within 24 hours
  leakage of calcein / dye release from liposome: 100%
[10]
  time at which late apoptotic stage started: > 10 h
[10]; within 2 hours
  total population of the cells that entered an early apoptotic stage: about 81.2%
[11]
  time until red fluorescence of TMRM disappeared (membrane depolarization): ≤ 6 h

## pyrene-FFKFxrFxr
[12]
  toxicity in HeLa cells: significant toxicity
